Data published in US20230011571A1, “SMALL MOLECULE FURIN INHIBITORS FOR TREATING INFECTIOUS DISEASES” (BP Asset V, Inc., priority 2019, published 2023).

Columns and labels:
Type in all cases: cell-based
[1] = test system: Chikungunya virus (CHIKV); assay: microbe, parasite or virus in culture; conditions: Chikungunya virus, Vero, 48 h, read-out: Percent viral inhibition CHKV
dengue virus (DENV) = assay: microbe, parasite or virus in culture; conditions: Dengue virus, Vero, 120 h, read-out: Percent viral inhibition DENY
Marburg virus (MARV) = assay: organism not typed; conditions: Vero, 72 h, read-out: Percent viral inhibition MARV

SMILES | inhibition at 1 µM [1] [%] | inhibition at 1 µM (dengue virus (DENV)) [%] | inhibition at 1 µM (Marburg virus (MARV)) [%]
CNC(=O)OCC1CCN(Cc2cc(Oc3ccc(N4CCN(CCC(=O)O)CC4)nc3)nc(-c3cc(Cl)cc(Cl)c3)c2)CC1 [Example 77, 3-(4-(5-((6-(3,5-dichlorophenyl)-4-((4-(((methylcarbamoyl)oxy)methyl)piperidin-1-yl)methyl)pyridin-2-yl)oxy)pyridin-2-yl)piperazin-1-yl) propanoic acid] | 42 | 20.6 | 57.2
CN1CCN(c2ncc(Oc3cc(CN4CCC(CC(=O)O)CC4)cc(-c4cc(Cl)cc(Cl)c4)n3)cn2)CC(O)C1 (stereo not drawn) [Example 226, 2-(1-((2-(3,5-dichlorophenyl)-6-((2-(6-hydroxy-4-methyl-1,4-diazepan-1-yl)pyrimidin-5-yl)oxy)pyridin-4-yl)methyl)piperidin-4-yl)acetic acid] | 26.7 | 58.9 | 41.4
O=C(O)CC1CCN(Cc2cc(Oc3cnc(N4CCNCC(O)C4)nc3)nc(-c3cc(Cl)cc(Cl)c3)c2)CC1 (stereo not drawn) [Example 123, 2-(1-((2-(3,5-dichlorophenyl)-6-((2-(6-hydroxy-1,4-diazepan-1-yl)pyrimidin-5-yl)oxy)pyridin-4-yl)methyl)piperidin-4-yl)acetic acid] | 19.2 | 39.9 | 50.6
CC(=O)NCC1CCN(Cc2cc(Oc3ccc(N4CCC5(CCNC5)C4)nc3)nc(-c3cc(Cl)cc(Cl)c3)c2)CC1 (stereo not drawn) [Example 199, N-((1-((2-((6-(2,7-diazaspiro[4.4]-nonan2-yl)pyridin-3-yl)oxy)-6-(3,5-dichlorophenyl)pyridin-4-yl)methyl)piperidin-4-yl)methyl)acetamide] | 21.6 | 49 | 18.5
CN1CCCN(c2ccc(Oc3cc(CN4CCC(CC(=O)O)CC4)cc(-c4cc(Cl)cc(Cl)c4)n3)nn2)CC1 [Example 356, 2-(1-((2-(3,5-dichlorophenyl)-6-((6-(4-methyl-1,4-diazepan-1-yl)pyridazin-3-yl)oxy)pyridin-4-yl)methyl)piperidin-4-yl)acetic acid] | 30.8 | 49.3 | 54.3
CN1CCN(c2ncc(Oc3cc(CN4CCC(CB(O)O)CC4)cc(-c4cc(Cl)cc(Cl)c4)n3)cn2)CC1 [Example 318, ((1-((2-(3,5-dichlorophenyl)-6-((2-(4-methylpiperazin-1-yl)pyrimidin-5-yl)oxy)pyridin-4-yl)methyl)piperidin-4-yl)methyl)boronic acid] | 15.3 | 44.6 | 31.6
CN1C[C@@H]2C[C@H]1CN2c1cnc(Oc2cc(CN3CCC(CC(=O)O)CC3)cc(-c3cc(Cl)cc(Cl)c3)n2)cn1 [Example 346, 2-(1-((2-(3,5-dichlorophenyl)-6-((5-((1S,4S)-5-methyl-2,5-diazabicyclo[2.2.1]heptan-2-yl)pyrazin-2-yl)oxy)pyridin-4-yl)methyl)piperidin-4-yl)acetic acid] | 9.36 | 54.6 | 56.8
O=C(O)CC1CCN(Cc2cc(Oc3ccc(N4CCN(CCO)CC4)nc3)nc(-c3cc(Cl)cc(Cl)c3)c2)CC1 [Example 300, 2-(1-((2-(3,5-dichlorophenyl)-6-((6-(4-(2-hydroxyethyl)piperazin-1-yl)pyridin-3-yl)oxy)pyridin-4-yl)methyl)piperidin-4-yl)acetic acid] | 18.2 | 0 | 45
CCC(=O)NCC1CCN(Cc2cc(Oc3cnc(N4CCN(CCC(C)C(=O)O)CC4)cn3)nc(-c3cc(Cl)cc(Cl)c3)c2)CC1 (stereo not drawn) [Example 392, 4-(4-(5-((6-(3,5-dichlorophenyl)-4-((4-(propionamidomethyl)piperidin-1-yl)methyl)pyridin-2-yl)oxy)pyrazin-2-yl)piperazin-1-yl)-2-methylbutanoic acid] | 15.8 | 34.9 | 60.6
O=C(O)CC1CCN(Cc2cc(Oc3cnc(N4CCN(C5CC(O)C5)CC4)nc3)nc(-c3cc(Cl)cc(Cl)c3)c2)CC1 (stereo not drawn) [Example 22, 2-(1-((2-(3,5-dichlorophenyl)-6-((2-(4-(3-hydroxycyclobutyl)piperazin-1-yl)pyrimidin-5-yl)oxy)pyridin-4-yl)methyl)piperidin-4-yl)acetic acid] | 26.8 | 64.4 | 52.5
CC(=O)NCC1CCN(Cc2cc(Oc3cnc(N4CCN(C(C)CC(N)=O)CC4)nc3)nc(-c3cc(Cl)cc(Cl)c3)c2)CC1 (stereo not drawn) [Example 95] | 46.6 | 58.1 | 59
NS(=O)(=O)CCCN1CCN(c2ncc(Oc3cc(CN4CCC(CC(=O)O)CC4)cc(-c4cc(Cl)cc(Cl)c4)n3)cn2)CC1 [Example 246, 2-(1-((2-(3,5-dichlorophenyl)-6-((2-(4-(3-sulfamoylpropyl)piperazin-1-yl)pyrimidin-5-yl)oxy)pyridin-4-yl)methyl)piperidin-4-yl)acetic acid] | 24.6 | 50.8 | 39.9
CN1CCN(c2ncc(Oc3cc(CN4CCC(OC5(C(=O)O)CC5)CC4)cc(-c4cc(Cl)cc(Cl)c4)n3)cn2)CC1 [Example 143, 1-((1-((2-(3,5-dichlorophenyl)-6-((2-(4-methylpiperazin-1-yl)pyrimidin-5-yl)oxy)pyridin-4-yl)methyl)piperidin-4-yl)oxy)cyclopropanecarboxylic acid] | 34.4 | 34.5 | 40.5
CN1CCN(c2ncc(Oc3cc(CN4CCC(CCB(O)O)CC4)cc(-c4cc(Cl)cc(Cl)c4)n3)cn2)CC1 [Example 323, (2-(1-((2-(3,5-dichlorophenyl)-6-((2-(4-methylpiperazin-1-yl)pyrimidin-5-yl)oxy)pyridin-4-yl)methyl)piperidin-4-yl)ethyl)boronic acid] | 5.87 | 0 | 30.7
CN1CC2CN(c3ncc(Oc4cc(CN5CCC(CC(=O)O)CC5)cc(-c5cc(Cl)cc(Cl)c5)n4)cn3)CC2C1 (stereo not drawn) [Example 133, 2-(1-((2-(3,5-dichlorophenyl)-6-((2-(5-methylhexahydropyrrolo[3,4-c]pyrrol-2(1H)-yl)pyrimidin-5-yl)oxy)pyridin-4-yl)methyl)piperidin-4-yl)acetic acid] | 43.4 | 47.8 | 54
CC(CCN1CCN(c2ncc(Oc3cc(CN4CCC(CC(=O)O)CC4)cc(-c4cc(Cl)cc(Cl)c4)n3)cn2)CC1)S(C)(=O)=O (stereo not drawn) [Example 205, 2-(1-((2-(3,5-dichlorophenyl)-6-((2-(4-(3-(methylsulfonyl)butyl)piperazin-1-yl)pyrimidin-5-yl)oxy)pyridin-4-yl)methyl)piperidin-4-yl)acetic acid] | 23.7 | 57.6 | 77.6
O=C(O)CC1CCN(Cc2cc(Oc3cnc(N4CCN(C(CO)CO)CC4)nc3)nc(-c3cc(Cl)cc(Cl)c3)c2)CC1 [Example 23, 2-(1-((2-(3,5-dichlorophenyl)-6-((2-(4-(1,3-dihydroxypropan-2-yl)piperazin-1-yl)pyrimidin-5-yl)oxy)pyridin-4-yl)methyl)piperidin-4-yl)acetic acid] | 21.6 | 11 | 52.5
CC(=O)NCC1CCN(Cc2cc(Oc3cnc(N4CCN(CCC(C)(C)C(=O)O)CC4)nc3)nc(-c3cc(Cl)cc(Cl)c3)c2)CC1 [Example 370, 4-(4-(5-((4-((4-(acetamidomethyl)piperidin-1-yl)methyl)-6-(3,5-dichlorophenyl)pyridin-2-yl)oxy)pyrimidin-2-yl)piperazin-1-yl)-2,2-dimethylbutanoic acid] | 24.6 | 41.7 | 57
CNC(=O)NCC1CCN(Cc2cc(Oc3cnc(N4CCN(CCCS(C)(=O)=O)CC4)nc3)nc(-c3cc(F)cc(Cl)c3)c2)CC1 [Example 274, 1-((1-((2-(3-chloro-5-fluorophenyl)-6-((2-(4-(3-(methylsulfonyl)propyl)piperazin-1-yl)pyrimidin-5-yl)oxy)pyridin-4-yl)methyl)piperidin-4-yl)methyl)-3-methylurea] | 44.4 | 56.1 | 49
NS(=O)(=O)CC1CCN(Cc2cc(Oc3ccc(N4CCN(CCC(=O)O)CC4)nc3)nc(-c3cc(Cl)cc(Cl)c3)c2)CC1 [Example 38, 3-(4-(5-((6-(3,5-dichlorophenyl)-4-((4-(sulfamoylmethyl)piperidin-1-yl)methyl)pyridin-2-yl)oxy)pyridin-2-yl)piperazin-1-yl)propanoic acid] | 39.1 | 14.2 | 50
CNC(=O)OCC1CCN(Cc2cc(Oc3cnc(N4CCN(C5CC(C(=O)O)C5)CC4)nc3)nc(-c3cc(Cl)cc(Cl)c3)c2)CC1 (stereo not drawn) [Example 211, 3-(4-(5-((6-(3,5-dichlorophenyl)-4-((4-(((methylcarbamoyl)oxy)methyl)piperidin-1-yl)methyl)pyridin-2-yl)oxy)pyrimidin-2-yl)piperazin-1-yl)cyclobutanecarboxylic acid] | 44.7 | 13.3 | 62.5
CS(=O)(=O)NCC1CCN(Cc2cc(Oc3ccc(N4CCN(CCC(=O)O)CC4)nc3)nc(-c3cc(Cl)cc(Cl)c3)c2)CC1 [Example 44, 3-(4-(5-((6-(3,5-dichlorophenyl)-4-((4-(methylsulfonamidomethyl)piperidin-1-yl)methyl)pyridin-2-yl)oxy)pyridin-2-yl)piperazin-1-yl)propanoic acid] | 35.5 | 69 | 49
O=C(O)CC1CCN(Cc2cc(Oc3ccc(N4CCCNCC4)nc3)nc(-c3cc(Cl)cc(Cl)c3)c2)CC1 [Example 166, 2-(1-((2-((6-(1,4-diazepan-1-yl)pyridin-3-yl)oxy)-6-(3,5-dichlorophenyl)pyridin-4-yl)methyl)piperidin-4-yl) acetic acid] | 35.3 | 21.3 | 45
